# Results: patent US12338220B2, “Antiviral pyrazolopiridinone compounds” (Novartis AG, priority 2019, dated 2025)
# pEC50, pIC50: −log10 of the molar value. Read-outs that look alike come from different tables or passages of the source.
# Experiments:
# CMV-polymerase = CMV-polymerase (Human cytomegalovirus (strain AD169) (HHV-5) (Human herpesvirus 5), UniProt P08546); test: biochemical
# CMV = test: microbe, parasite or virus in culture; assay type: cell-based; conditions: Human betaherpesvirus 5, 72 h, read-out: CMV-Luc Cellular EC50, NN-NHDF cells, MOI 1, 72 hrs
# [1] = CMV-polymerase Biochemical IC50
# [2] = read-out: CMV-polymerase Biochemical IC50
SMILES,pIC50 (CMV-polymerase; [1]),pEC50 (CMV),pIC50 (CMV-polymerase; [2])
"Cn1nc(C(=O)NCc2ccc(Cl)cc2)c2c1C(=O)N(CC1(S(=O)(=O)C(C)(C)COCCO)CC1)CC2 [Example 88, N-(4-Chlorobenzyl)-6-((1-((1-(2-hydroxyethoxy)-2-methylpropan-2-yl)sulfonyl)cyclopropyl)methyl)-1-methyl-7-oxo-4,5,6,7-tetrahydro-1H-pyrazolo[3,4-c]pyridine-3-carboxamide]",8.70,7.44,–
"Cn1nc(C(=O)NCc2ccc(C#N)cc2)c2c1C(=O)N(CC1(S(=O)(=O)C3(COCCN)CC3)CC1)CC2 [Example 96, 6-((1-((1-((2-aminoethoxy)methyl)cyclopropyl)sulfonyl)cyclopropyl)methyl)-N-(4-cyanobenzyl)-1-methyl-7-oxo-4,5,6,7-tetrahydro-1H-pyrazolo[3,4-c]pyridine-3-carboxamide]",–,7.59,9.00
"CNCCOCC(C)(C)S(=O)(=O)C1(CN2CCc3c(C(=O)NCc4ccc(C#N)cc4)nn(C)c3C2=O)CC1 [Example 101, N-(4-Cyanobenzyl)-1-methyl-6-((1-((2-methyl-1-(2-(methylamino)ethoxy)propan-2-yl)sulfonyl)cyclopropyl)methyl)-7-oxo-4,5,6,7-tetrahydro-1H-pyrazolo[3,4-c]pyridine-3-carboxamide]",9.00,8.05,–
"Cn1nc(C(=O)NCc2ccc(C#N)cc2)c2c1C(=O)N(CC1(S(=O)(=O)C(C)(C)COC3CNC3)CC1)CC2 [Example 102, 6-((1-((1-(Azetidin-3-yloxy)-2-methylpropan-2-yl)sulfonyl)cyclopropyl)methyl)-N-(4-cyanobenzyl)-1-methyl-7-oxo-4,5,6,7-tetrahydro-1H-pyrazolo[3,4-c]pyridine-3-carboxamide]",8.30,7.59,–
"Cn1nc(C(=O)NCc2ccc(C#N)cc2)c2c1C(=O)N(CC1(S(=O)(=O)C(C)(C)COCC(C)(C)N)CC1)CC2 [Example 103, 6-((1-((1-(2-Amino-2-methylpropoxy)-2-methylpropan-2-yl)sulfonyl)cyclopropyl)methyl)-N-(4-cyanobenzyl)-1-methyl-7-oxo-4,5,6,7-tetrahydro-1H-pyrazolo[3,4-c]pyridine-3-carboxamide]",8.05,7.39,–
"CN(C)CCOCC(C)(C)S(=O)(=O)C1(CN2CCc3c(C(=O)NCc4ccc(C#N)cc4)nn(C)c3C2=O)CC1 [Example 104, N-(4-Cyanobenzyl)-6-((1-((1-(2-(dimethylamino)ethoxy)-2-methylpropan-2-yl)sulfonyl)cyclopropyl)methyl)-1-methyl-7-oxo-4,5,6,7-tetrahydro-1H-pyrazolo[3,4-c]pyridine-3-carboxamide]",–,7.68,8.52
"CNC(=O)C(C)(C)S(=O)(=O)C1(CN2CCc3c(C(=O)NCc4ccc(Cl)cc4)nn(C)c3C2=O)CC1 [Example 110, N-(4-Chlorobenzyl)-1-methyl-6-((1-((2-methyl-1-(methylamino)-1-oxopropan-2-yl)sulfonyl)cyclopropyl)methyl)-7-oxo-4,5,6,7-tetrahydro-1H-pyrazolo[3,4-c]pyridine-3-carboxamide]",8.30,6.66,–
"Cn1nc(C(=O)NCc2ccc(C#N)cc2)c2c1C(=O)N(CC1(S(=O)(=O)C3(CCO)CC3)CC1)CC2 [Example 117, N-(4-Cyanobenzyl)-6-((1-((1-(2-hydroxyethyl)cyclopropyl)sulfonyl)cyclopropyl)methyl)-1-methyl-7-oxo-4,5,6,7-tetrahydro-1H-pyrazolo[3,4-c]pyridine-3-carboxamide]",–,7.46,8.40
"Cn1nc(C(=O)NCc2ccc(C#N)cc2)c2c1C(=O)N(CC1(S(=O)(=O)CC(C)(C)O)CC1)CC2 [Example 118, N-(4-Cyanobenzyl)-6-((1-((2-hydroxy-2-methylpropyl)sulfonyl)cyclopropyl)methyl)-1-methyl-7-oxo-4,5,6,7-tetrahydro-1H-pyrazolo[3,4-c]pyridine-3-carboxamide]",–,6.49,7.72
"Cn1nc(C(=O)NCc2ccc(C#N)cc2)c2c1C(=O)N(CC1(S(=O)(=O)[C@H]3C[C@@H](O)C3)CC1)CC2 [Example 119, N-(4-Cyanobenzyl)-6-((1-(((1s,3s)-3-hydroxycyclobutyl)sulfonyl)cyclopropyl)methyl)-1-methyl-7-oxo-4,5,6,7-tetrahydro-1H-pyrazolo[3,4-c]pyridine-3-carboxamide]",8.40,6.81,–
"Cn1nc(C(=O)NCc2ccc(C#N)cc2)c2c1C(=O)N(CC1(S(=O)(=O)[C@H]3C[C@H](O)C3)CC1)CC2 [Example 120, N-(4-Cyanobenzyl)-6-((1-(((1r,3r)-3-hydroxycyclobutyl)sulfonyl)cyclopropyl)methyl)-1-methyl-7-oxo-4,5,6,7-tetrahydro-1H-pyrazolo[3,4-c]pyridine-3-carboxamide]",8.52,6.82,–
"Cn1nc(C(=O)NCc2ccc(Cl)cc2)c2c1C(=O)N(CC1(S(N)(=O)=O)CC1)CC2 [Example 121, N-(4-chlorobenzyl)-1-methyl-7-oxo-6-((1-sulfamoylcyclopropyl)methyl)-4,5,6,7-tetrahydro-1H-pyrazolo[3,4-c]pyridine-3-carboxamide]",8.10,6.81,–
"CN(C)/C=N/S(=O)(=O)C1(CN2CCc3c(C(=O)NCc4ccc(Cl)cc4)nn(C)c3C2=O)CC1 [Example 122, (E)-N-(4-chlorobenzyl)-6-((1-(N-((dimethylamino)methylene)sulfamoyl)cyclopropyl)methyl)-1-methyl-7-oxo-4,5,6,7-tetrahydro-1H-pyrazolo[3,4-c]pyridine-3-carboxamide]",–,6.53,8.15
"Cn1nc(C(=O)NCc2ccc(C#N)cc2)c2c1C(=O)N(CC1(S(=O)(=O)N3CCOCC3)CC1)CC2 [Example 124, N-(4-Cyanobenzyl)-1-methyl-6-((1-(morpholinosulfonyl)cyclopropyl)methyl)-7-oxo-4,5,6,7-tetrahydro-1H-pyrazolo[3,4-c]pyridine-3-carboxamide]",–,6.81,8.22
"Cn1nc(C(=O)NCc2ccc(C#N)cc2)c2c1C(=O)N(CC1(S(=O)(=O)N3CCC(O)CC3)CC1)CC2 [Example 125, N-(4-Cyanobenzyl)-6-((1-((4-hydroxypiperidin-1-yl)sulfonyl)cyclopropyl)methyl)-1-methyl-7-oxo-4,5,6,7-tetrahydro-1H-pyrazolo[3,4-c]pyridine-3-carboxamide]",–,6.71,8.52
"Cn1nc(C(=O)NCc2ccc(C#N)cc2)c2c1C(=O)N(CC1(S(=O)(=O)N3CC[C@@H](O)C3)CC1)CC2 [Example 126, (R)-N-(4-Cyanobenzyl)-6-((1-((3-hydroxypyrrolidin-1-yl)sulfonyl)cyclopropyl)methyl)-1-methyl-7-oxo-4,5,6,7-tetrahydro-1H-pyrazolo[3,4-c]pyridine-3-carboxamide]",–,6.93,8.40
"Cn1nc(C(=O)NCc2ccc(C#N)cc2)c2c1C(=O)N(CC1(S(=O)(=O)N3CC[C@H](O)C3)CC1)CC2 [Example 127, (S)-N-(4-Cyanobenzyl)-6-((1-((3-hydroxypyrrolidin-1-yl)sulfonyl)cyclopropyl)methyl)-1-methyl-7-oxo-4,5,6,7-tetrahydro-1H-pyrazolo[3,4-c]pyridine-3-carboxamide]",–,6.91,8.40
"Cn1nc(C(=O)NCc2ccc(C#N)cc2)c2c1C(=O)N(CC1(S(=O)(=O)NC3CC3)CC1)CC2 [Example 129, N-(4-cyanobenzyl)-6-((1-(N-cyclopropylsulfamoyl)cyclopropyl)methyl)-1-methyl-7-oxo-4,5,6,7-tetrahydro-1H-pyrazolo[3,4-c]pyridine-3-carboxamide]",–,6.61,7.80
"Cn1nc(C(=O)NCc2ccc(C#N)cc2)c2c1C(=O)N(CC1(S(=O)(=O)NC3COC3)CC1)CC2 [Example 132, N-(4-Cyanobenzyl)-1-methyl-6-((1-(N-(oxetan-3-yl)sulfamoyl)cyclopropyl)methyl)-7-oxo-4,5,6,7-tetrahydro-1H-pyrazolo[3,4-c]pyridine-3-carboxamide]",–,6.54,7.70
"Cn1nc(C(=O)NCc2ccc(C#N)cc2)c2c1C(=O)N(CC1(S(=O)(=O)N3CCNCC3)CC1)CC2 [Example 133, N-(4-Cyanobenzyl)-1-methyl-7-oxo-6-((1-(piperazin-1-ylsulfonyl)cyclopropyl)methyl)-4,5,6,7-tetrahydro-1H-pyrazolo[3,4-c]pyridine-3-carboxamide]",–,7.01,7.70
"Cn1nc(C(=O)NCc2ccc(C#N)cc2)c2c1C(=O)N(CC1(S(=O)(=O)NCCCN)CC1)CC2 [Example 134, 6-((1-(N-(3-Aminopropyl)sulfamoyl)cyclopropyl)methyl)-N-(4-cyanobenzyl)-1-methyl-7-oxo-4,5,6,7-tetrahydro-1H-pyrazolo[3,4-c]pyridine-3-carboxamide]",–,6.35,7.51
"Cn1nc(C(=O)NCc2ccc(C#N)cc2)c2c1C(=O)N(CC1(S(=O)(=O)NCCN)CC1)CC2 [Example 135, 6-((1-(N-(2-Aminoethyl)sulfamoyl)cyclopropyl)methyl)-N-(4-cyanobenzyl)-1-methyl-7-oxo-4,5,6,7-tetrahydro-1H-pyrazolo[3,4-c]pyridine-3-carboxamide]",–,6.27,7.21
"CN1CCN(S(=O)(=O)C2(CN3CCc4c(C(=O)NCc5ccc(C#N)cc5)nn(C)c4C3=O)CC2)CC1 [Example 136, N-(4-Cyanobenzyl)-1-methyl-6-((1-((4-methylpiperazin-1-yl)sulfonyl)cyclopropyl)methyl)-7-oxo-4,5,6,7-tetrahydro-1H-pyrazolo[3,4-c]pyridine-3-carboxamide]",–,6.70,7.74
"Cn1nc(C(=O)NCc2ccc(C#N)cc2)c2c1C(=O)N(CC1(S(=O)(=O)NC3CCNCC3)CC1)CC2 [Example 137, N-(4-Cyanobenzyl)-1-methyl-7-oxo-6-((1-(N-(piperidin-4-yl)sulfamoyl)cyclopropyl)methyl)-4,5,6,7-tetrahydro-1H-pyrazolo[3,4-c]pyridine-3-carboxamide]",–,6.20,7.36
